Experimental data as given in PubChem BioAssay AID1963837 (Molecular Pharmacology Branch, DTP, NCI, 2024).

These compounds were tested on 843126-344-R-J1-PDC complex spheroid viability (assay: Anticancer human tumor 843126-344-R-J1-PDC patient-derived melanoma cell line growth inhibition [POLQ]). Conditions: curve of first compound; second compound 0.0316 µM.
Summary of the method: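 Three-cell-type spheroids modelling solid tumor plus stroma served as the readout system; POL inhibitors were tested individually and in combination, concentration ranges set by clinical Cmax where known.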
With `C=CCn1c(=O)c2cnc(Nc3ccc(N4CCN(C)CC4)cc3)nc2n1-c1cccc(C(C)(C)O)n1` + Nc1ccc(C#CCN(C(=O)Cc2ncc(C(F)(F)F)cc2C(F)(F)F)c2ccc(F)cc2)nn1 the IC50 was > 1000 nM.
For `CCc1c2c(nc3ccc(O)cc13)-c1cc3c(c(=O)n1C2)COC(=O)[C@]3(O)CC` + Nc1ccc(C#CCN(C(=O)Cc2ncc(C(F)(F)F)cc2C(F)(F)F)c2ccc(F)cc2)nn1, the IC50 was > 1000 nM.
`COc1cccc(OCCCN)c1-c1cc(Nc2cnc(C#N)cn2)n[nH]1` + Nc1ccc(C#CCN(C(=O)Cc2ncc(C(F)(F)F)cc2C(F)(F)F)c2ccc(F)cc2)nn1 was tested, and the IC50 was 57.8 nM.
`Nc1ccn(C2OC(CO)C(O)C2(F)F)c(=O)n1` (stereo unspecified) + Nc1ccc(C#CCN(C(=O)Cc2ncc(C(F)(F)F)cc2C(F)(F)F)c2ccc(F)cc2)nn1 was tested, and the IC50 was < 31.6 nM.
With `O=C(c1cc(Cc2n[nH]c(=O)c3ccccc23)ccc1F)N1CCN(C(=O)C2CC2)CC1` + Nc1ccc(C#CCN(C(=O)Cc2ncc(C(F)(F)F)cc2C(F)(F)F)c2ccc(F)cc2)nn1 the IC50 was > 10000 nM.
`O=c1[nH]cc(F)c(=O)[nH]1` + Nc1ccc(C#CCN(C(=O)Cc2ncc(C(F)(F)F)cc2C(F)(F)F)c2ccc(F)cc2)nn1 was tested, and the IC50 was > 10000 nM.

Same assay, conditions: curve of first compound; second compound 0.1 µM
`C=CCn1c(=O)c2cnc(Nc3ccc(N4CCN(C)CC4)cc3)nc2n1-c1cccc(C(C)(C)O)n1` + Nc1ccc(C#CCN(C(=O)Cc2ncc(C(F)(F)F)cc2C(F)(F)F)c2ccc(F)cc2)nn1 was tested, and the IC50 was > 1000 nM.
In the case of `CCc1c2c(nc3ccc(O)cc13)-c1cc3c(c(=O)n1C2)COC(=O)[C@]3(O)CC` + Nc1ccc(C#CCN(C(=O)Cc2ncc(C(F)(F)F)cc2C(F)(F)F)c2ccc(F)cc2)nn1, the IC50 is reported as > 1000 nM.
`COc1cccc(OCCCN)c1-c1cc(Nc2cnc(C#N)cn2)n[nH]1` + Nc1ccc(C#CCN(C(=O)Cc2ncc(C(F)(F)F)cc2C(F)(F)F)c2ccc(F)cc2)nn1 gave an IC50 of 85.1 nM.
In the case of `Nc1ccn(C2OC(CO)C(O)C2(F)F)c(=O)n1` (stereo unspecified) + Nc1ccc(C#CCN(C(=O)Cc2ncc(C(F)(F)F)cc2C(F)(F)F)c2ccc(F)cc2)nn1, the IC50 is reported as < 31.6 nM.
In the case of `O=C(c1cc(Cc2n[nH]c(=O)c3ccccc23)ccc1F)N1CCN(C(=O)C2CC2)CC1` + Nc1ccc(C#CCN(C(=O)Cc2ncc(C(F)(F)F)cc2C(F)(F)F)c2ccc(F)cc2)nn1, the IC50 is reported as > 10000 nM.
In the case of `O=c1[nH]cc(F)c(=O)[nH]1` + Nc1ccc(C#CCN(C(=O)Cc2ncc(C(F)(F)F)cc2C(F)(F)F)c2ccc(F)cc2)nn1, the IC50 is reported as > 10000 nM.

Same assay, conditions: curve of first compound; second compound 0.316 µM
For `C=CCn1c(=O)c2cnc(Nc3ccc(N4CCN(C)CC4)cc3)nc2n1-c1cccc(C(C)(C)O)n1` + Nc1ccc(C#CCN(C(=O)Cc2ncc(C(F)(F)F)cc2C(F)(F)F)c2ccc(F)cc2)nn1, the IC50 was > 1000 nM.
With `CCc1c2c(nc3ccc(O)cc13)-c1cc3c(c(=O)n1C2)COC(=O)[C@]3(O)CC` + Nc1ccc(C#CCN(C(=O)Cc2ncc(C(F)(F)F)cc2C(F)(F)F)c2ccc(F)cc2)nn1 the IC50 was > 1000 nM.
For `COc1cccc(OCCCN)c1-c1cc(Nc2cnc(C#N)cn2)n[nH]1` + Nc1ccc(C#CCN(C(=O)Cc2ncc(C(F)(F)F)cc2C(F)(F)F)c2ccc(F)cc2)nn1, the IC50 was 91.9 nM.
For `Nc1ccn(C2OC(CO)C(O)C2(F)F)c(=O)n1` (stereo unspecified) + Nc1ccc(C#CCN(C(=O)Cc2ncc(C(F)(F)F)cc2C(F)(F)F)c2ccc(F)cc2)nn1, the IC50 was < 31.6 nM.
For `O=C(c1cc(Cc2n[nH]c(=O)c3ccccc23)ccc1F)N1CCN(C(=O)C2CC2)CC1` + Nc1ccc(C#CCN(C(=O)Cc2ncc(C(F)(F)F)cc2C(F)(F)F)c2ccc(F)cc2)nn1, the IC50 was > 10000 nM.
`O=c1[nH]cc(F)c(=O)[nH]1` + Nc1ccc(C#CCN(C(=O)Cc2ncc(C(F)(F)F)cc2C(F)(F)F)c2ccc(F)cc2)nn1 was tested, and the IC50 was > 10000 nM.

Same assay, conditions: curve of first compound; second compound 1 µM
With `C=CCn1c(=O)c2cnc(Nc3ccc(N4CCN(C)CC4)cc3)nc2n1-c1cccc(C(C)(C)O)n1` + Nc1ccc(C#CCN(C(=O)Cc2ncc(C(F)(F)F)cc2C(F)(F)F)c2ccc(F)cc2)nn1 the IC50 was > 1000 nM.
`CCc1c2c(nc3ccc(O)cc13)-c1cc3c(c(=O)n1C2)COC(=O)[C@]3(O)CC` + Nc1ccc(C#CCN(C(=O)Cc2ncc(C(F)(F)F)cc2C(F)(F)F)c2ccc(F)cc2)nn1 was tested, and the IC50 was > 1000 nM.
For `COc1cccc(OCCCN)c1-c1cc(Nc2cnc(C#N)cn2)n[nH]1` + Nc1ccc(C#CCN(C(=O)Cc2ncc(C(F)(F)F)cc2C(F)(F)F)c2ccc(F)cc2)nn1, the IC50 was 97.1 nM.
With `Nc1ccn(C2OC(CO)C(O)C2(F)F)c(=O)n1` (stereo unspecified) + Nc1ccc(C#CCN(C(=O)Cc2ncc(C(F)(F)F)cc2C(F)(F)F)c2ccc(F)cc2)nn1 the IC50 was < 31.6 nM.
For `O=C(c1cc(Cc2n[nH]c(=O)c3ccccc23)ccc1F)N1CCN(C(=O)C2CC2)CC1` + Nc1ccc(C#CCN(C(=O)Cc2ncc(C(F)(F)F)cc2C(F)(F)F)c2ccc(F)cc2)nn1, the IC50 was > 10000 nM.
`O=c1[nH]cc(F)c(=O)[nH]1` + Nc1ccc(C#CCN(C(=O)Cc2ncc(C(F)(F)F)cc2C(F)(F)F)c2ccc(F)cc2)nn1 was tested, and the IC50 was > 10000 nM.

Same assay, conditions: curve of first compound; second compound 3.16 µM
For `C=CCn1c(=O)c2cnc(Nc3ccc(N4CCN(C)CC4)cc3)nc2n1-c1cccc(C(C)(C)O)n1` + Nc1ccc(C#CCN(C(=O)Cc2ncc(C(F)(F)F)cc2C(F)(F)F)c2ccc(F)cc2)nn1, the IC50 was > 1000 nM.
In the case of `CCc1c2c(nc3ccc(O)cc13)-c1cc3c(c(=O)n1C2)COC(=O)[C@]3(O)CC` + Nc1ccc(C#CCN(C(=O)Cc2ncc(C(F)(F)F)cc2C(F)(F)F)c2ccc(F)cc2)nn1, the IC50 is reported as > 1000 nM.
`COc1cccc(OCCCN)c1-c1cc(Nc2cnc(C#N)cn2)n[nH]1` + Nc1ccc(C#CCN(C(=O)Cc2ncc(C(F)(F)F)cc2C(F)(F)F)c2ccc(F)cc2)nn1 was tested, and the IC50 was 25.6 nM.
In the case of `Nc1ccn(C2OC(CO)C(O)C2(F)F)c(=O)n1` (stereo unspecified) + Nc1ccc(C#CCN(C(=O)Cc2ncc(C(F)(F)F)cc2C(F)(F)F)c2ccc(F)cc2)nn1, the IC50 is reported as < 31.6 nM.
In the case of `O=C(c1cc(Cc2n[nH]c(=O)c3ccccc23)ccc1F)N1CCN(C(=O)C2CC2)CC1` + Nc1ccc(C#CCN(C(=O)Cc2ncc(C(F)(F)F)cc2C(F)(F)F)c2ccc(F)cc2)nn1, the IC50 is reported as > 10000 nM.
For `O=c1[nH]cc(F)c(=O)[nH]1` + Nc1ccc(C#CCN(C(=O)Cc2ncc(C(F)(F)F)cc2C(F)(F)F)c2ccc(F)cc2)nn1, the IC50 was > 10000 nM.

Same assay, conditions: curve of first compound; second compound 10 µM
For `C=CCn1c(=O)c2cnc(Nc3ccc(N4CCN(C)CC4)cc3)nc2n1-c1cccc(C(C)(C)O)n1` + Nc1ccc(C#CCN(C(=O)Cc2ncc(C(F)(F)F)cc2C(F)(F)F)c2ccc(F)cc2)nn1, the IC50 was > 1000 nM.
